Laboratory results from patent publication US20060069132A1, “Azolecarboxamide herbicides” (priority 2004, published 2006).

Columns and labels:
giant foxtail = assay: Test C pre-/postemergence herbicide test; format: in vivo, Setaria faberi; settings: for Foxtail, Giant plant response rating: 500 g ai/ha
How it was run: (§1)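 Visual injury scores run from 0 (no effect) to 100 (complete control), assessed relative to untreated controls 12 to 14 days after treatment in the greenhouse. Chemicals were formulated in a non-phytotoxic solvent mixture with surfactant and applied to soil after planting or to emerged plants at the 1- to 4-leaf stage.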

[1] = test system: smallflower umbrella sedge; assay: Test C flooded paddy test; format: in vivo, Cyperus difformis
chickweed = assay: Test C postemergence herbicide test; format: in vivo, Stellaria media
How it was run: (§2)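 Ratings (0 = no effect, 100 = complete control) come from visual comparison with untreated plants after 12 to 14 days in the greenhouse. Treatment was postemergence at the 1- to 4-leaf stage (2–18 cm), or at the 2-leaf stage for the flooded paddy barnyardgrass.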

lambsquarters = assay: Test C pre-/postemergence herbicide test; format: in vivo, Chenopodium album; settings: for Lambsquarters plant response rating: 500 g ai/ha
How it was run: as §1

morningglory [2] = assay: Test A pre-/postemergence herbicide test; format: in vivo, Ipomoea spp.; settings: for Plant response rating, Morningglory: Postemergence; for Morningglory plant response rating: Preemergence
How it was run: (§3)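 Pre: seeded sandy loam, directed soil spray, compound in non-phytotoxic solvent + surfactant. Post: 1–2-leaf plants (2–10 cm), sprayed to runoff. Greenhouse ~10 d; visual injury vs untreated, 0–100 scale.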

redroot pigweed = assay: Test A pre-/postemergence herbicide test; format: in vivo, Amaranthus retroflexus; settings: for Plant response rating, Pigweed: Postemergence; for Pigweed plant response rating: Preemergence
How it was run: as §3

velvetleaf = assay: Test A pre-/postemergence herbicide test; format: in vivo, Abutilon theophrasti; settings: for Velvetleaf plant response rating: Preemergence
How it was run: as §3

bermudagrass = assay: Test C pre-/postemergence herbicide test; format: in vivo, Cynodon dactylon
How it was run: as §1

barnyardgrass = assay: Test C flooded paddy test; format: in vivo, Echinochloa crus-galli
How it was run: as §2

morningglory [3] = assay: Test C pre-/postemergence herbicide test; format: in vivo, Ipomoea coccinea; design: key to Plant response rating, Morningglory: 0 = no effect, 100 = complete control; settings: for Morningglory plant response rating: 500 g ai/ha
How it was run: as §1

yellow nutsedge = assay: Test C pre-/postemergence herbicide test; format: in vivo, Cyperus esculentus; settings: for Nutsedge, Yellow plant response rating: 500 g ai/ha
How it was run: as §1

common ragweed = assay: Test C pre-/postemergence herbicide test; format: in vivo, Ambrosia elatior; design: key to Plant response rating, Ragweed: 0 = no effect, 100 = complete control; settings: for Ragweed plant response rating: 500 g ai/ha
How it was run: as §1

eastern black nightshade = assay: Test C pre-/postemergence herbicide test; format: in vivo, Solanum ptycanthum; settings: for Plant response rating, Nightshade: visual, 12 to 14 days
How it was run: as §1

[4] = 125 g ai/ha, scale 0 (no effect) to 100 (complete control), visual, 12 to 14 days, preemergence
[5] = 250 g ai/ha, scale 0 to 100 (0 no effect, 100 complete control), visual, 12 to 14 days, preemergence
[6] = Postemergence, 125 g ai/ha, scale 0 to 100, 0 no effect, 100 complete control
[7] = Postemergence, 250 g ai/ha, scale 0 to 100, 0 no effect, 100 complete control
[8] = Preemergence, scale 0 to 100, 0 no effect, 100 complete control
[9] = postemergence, 62 g ai/ha, scale 0 to 100
[10] = 62 g ai/ha, scale 0 to 100 (0 no effect, 100 complete control)
[11] = 125 g ai/ha, scale of 0 to 100, 0 is no effect, 100 is complete control
[12] = 250 g ai/ha, scale of 0 to 100, 0 is no effect, 100 is complete control
[13] = 500 g ai/ha, visual rating after 12 to 14 days, scale 0 to 100 (0 no effect, 100 complete control)
[14] = Postemergence, 500 g ai/ha, scale 0 to 100
[15] = 500 g ai/ha, 0 to 100 scale, 0 no effect, 100 complete control
[16] = 2000 g ai/ha, 0 to 100 scale, 0 no effect, 100 complete control
[17] = 500 g ai/ha, visual rating, 0 to 100 scale (0 no effect, 100 complete control)
[18] = Preemergence, 500 g ai/ha, scale 0 to 100, 0 no effect, 100 complete control

With CCNC(=O)c1cc(NC(=O)c2cc(C(C)(C)C)nn2CC)ccc1F [Compound 58] the “Plant response rating (0 = no effect, 100 = complete control), Foxtail, Giant” value (giant foxtail; 62 g ai/ha, preemergence) was 70, the “Plant response rating, Foxtail, Giant” value (giant foxtail; [4]) was 100 and the “Plant response rating, Foxtail, Giant” value (giant foxtail; [5]) was 100. The “Foxtail, Giant plant response rating” value (giant foxtail; Postemergence, scale 0 to 100) was 40, the “Plant response rating, Foxtail, Giant” value (giant foxtail; [6]) was 5 and the “Plant response rating, Foxtail, Giant” value (giant foxtail; [7]) was 20. For the same molecule, the “Foxtail, Giant plant response rating” value (giant foxtail; [8]) was 100, the “Plant response rating, Foxtail, Giant” value (giant foxtail; [9]) was 0 and the “Sedge, Umbrella plant response rating” value [1, 10] was 0. For the same molecule, the “Sedge, Umbrella plant response rating” value [1, 11] was 20, the “Sedge, Umbrella plant response rating” value [1, 12] was 50 and the “Plant response rating, Sedge, Umbrella” value [1, 13] was 65. The “Chickweed plant response rating” value (chickweed; [14]) was 85, the “Plant response rating, Chickweed” value (chickweed; [6]) was 20 and the “Plant response rating, Chickweed” value (chickweed; [7]) was 50. The “Plant response rating, Chickweed” value (chickweed; [9]) was 20, the “Plant response rating (0 = no effect, 100 = complete control), Lambsquarters” value (lambsquarters; 62 g ai/ha, preemergence) was 100 and the “Plant response rating, Lambsquarters” value (lambsquarters; [4]) was 100. For the same molecule, the “Plant response rating, Lambsquarters” value (lambsquarters; [5]) was 100, the “Lambsquarters plant response rating” value (lambsquarters; Postemergence, scale 0 to 100) was 90 and the “Plant response rating, Lambsquarters” value (lambsquarters; [7]) was 90. The “Lambsquarters plant response rating” value (lambsquarters; [8]) was 100, the “Plant response rating, Lambsquarters” value (lambsquarters; [9]) was 60 and the “Plant response rating, Morningglory” value (morningglory [2]; [15]) was 10. The “Plant response rating, Morningglory” value (morningglory [2]; [16]) was 0, the “Morningglory plant response rating” value (morningglory [2]; [17]) was 20 and the “Morningglory plant response rating” value (morningglory [2]; [16]) was 40. The “Plant response rating, Pigweed” value (redroot pigweed; [15]) was 70, the “Plant response rating, Pigweed” value (redroot pigweed; [16]) was 90 and the “Pigweed plant response rating” value (redroot pigweed; [17]) was 100. The “Pigweed plant response rating” value (redroot pigweed; [16]) was 100, the “Plant response rating, Velvetleaf” value (velvetleaf; Postemergence, 2000 g ai/ha, 0 to 100 scale, 0 no effect, 100 complete control) was 40 and the “Velvetleaf plant response rating” value (velvetleaf; [17]) was 70. The “Velvetleaf plant response rating” value (velvetleaf; [16]) was 65, the “Plant response rating (0 = no effect, 100 = complete control), Bermudagrass” value (bermudagrass; 62 g ai/ha, preemergence) was 90 and the “Plant response rating, Bermudagrass” value (bermudagrass; [4]) was 100. The “Plant response rating, Bermudagrass” value (bermudagrass; [5]) was 100, the “Bermudagrass plant response rating” value (bermudagrass; [14]) was 10 and the “Plant response rating, Bermudagrass” value (bermudagrass; [6]) was 5. The “Bermudagrass plant response rating” value (bermudagrass; Postemergence, 250 g ai/ha, scale 0 to 100) was 10, the “Bermudagrass plant response rating” value (bermudagrass; [18]) was 100 and the “Plant response rating, Bermudagrass” value (bermudagrass; [9]) was 0. The “Barnyardgrass plant response rating” value (barnyardgrass; [10]) was 0, the “Barnyardgrass plant response rating” value (barnyardgrass; [11]) was 10 and the “Barnyardgrass plant response rating” value (barnyardgrass; [12]) was 35. The “Plant response rating, Barnyardgrass” value (barnyardgrass; [13]) was 85, the “Plant response rating (0 = no effect, 100 = complete control), Morningglory” value (morningglory [3]; 62 g ai/ha, preemergence) was 10 and the “Plant response rating, Morningglory” value (morningglory [3]; [4]) was 20. The “Plant response rating, Morningglory” value (morningglory [3]; [5]) was 50, the “Morningglory plant response rating” value (morningglory [3]; Postemergence, scale 0 to 100) was 20 and the “Plant response rating, Morningglory” value (morningglory [3]; [7]) was 10. The “Morningglory plant response rating” value (morningglory [3]; [8]) was 80, the “Plant response rating, Morningglory” value (morningglory [3]; [9]) was 10 and the “Plant response rating (0 = no effect, 100 = complete control), Nutsedge, Yellow” value (yellow nutsedge; 62 g ai/ha, preemergence) was 10. For the same molecule, the “Plant response rating, Nutsedge, Yellow” value (yellow nutsedge; [4]) was 20, the “Plant response rating, Nutsedge, Yellow” value (yellow nutsedge; [5]) was 50 and the “Nutsedge, Yellow plant response rating” value (yellow nutsedge; Postemergence, scale 0 to 100) was 5. The “Plant response rating, Nutsedge, Yellow” value (yellow nutsedge; [7]) was 5, the “Nutsedge, Yellow plant response rating” value (yellow nutsedge; [8]) was 50 and the “Plant response rating, Nutsedge, Yellow” value (yellow nutsedge; [9]) was 0. For the same molecule, the “Plant response rating (0 = no effect, 100 = complete control), Ragweed” value (common ragweed; 62 g ai/ha, preemergence) was 60, the “Plant response rating, Ragweed” value (common ragweed; [4]) was 85 and the “Plant response rating, Ragweed” value (common ragweed; [5]) was 100. For the same molecule, the “Ragweed plant response rating” value (common ragweed; Postemergence, scale 0 to 100) was 85, the “Plant response rating, Ragweed” value (common ragweed; [7]) was 5 and the “Ragweed plant response rating” value (common ragweed; [8]) was 100. For the same molecule, the “Plant response rating, Ragweed” value (common ragweed; [9]) was 0, the “Plant response rating (0 = no effect, 100 = complete control), Nightshade” value (eastern black nightshade; 62 g ai/ha, preemergence) was 95 and the “Plant response rating, Nightshade” value (eastern black nightshade; 125 g ai/ha, scale 0 (no effect) to 100 (complete control), preemergence) was 100. The “Plant response rating, Nightshade” value (eastern black nightshade; 250 g ai/ha, scale 0 to 100 (0 no effect, 100 complete control), preemergence) was 100 and the “Nightshade plant response rating” value (eastern black nightshade; [18]) was 100.
